Measurements: US20150105252A1, “SUBSTITUTED PYRAZOLES AS HERBICIDES” (E I DU PONT DE NEMOURS AND COMPANY, priority 2013, published 2015)
Values joined by “and” are separate entries in the source; they are usually repeats but may differ in a detail not shown here. Identical values can stand only once.

How the values were obtained:
Italian ryegrass = assay: Test F postemergence; format: in vivo, Lolium multiflorum; settings: scale 0 to 100
Description: (§1) Seeds of plant species selected from corn (Zea mays), soybean (Glycine max), velvetleaf (Abutilon theophrasti), lambsquarters (Chenopodium album), wild poinsettia (Euphorbia heterophylla), pigweed, palmer (palmer pigweed, Amaranthus palmeri), common waterhemp (Amaranthus rudis), surinam grass (Brachiaria decumbens), large crabgrass (Digitaria sanguinalis), crabgrass, Brazil (Brazilian crabgrass, Digitaria horizontalis), fall panicum (Panicum dichotomiflorum), giant foxtail (Setaria faberii), green foxtail (Setaria viridis), goosegrass (Eleusine indica), johnsongrass (Sorghum halepense), common ragweed (Ambrosia elation), barnyardgrass (Echinochloa crus-galli), southern sandbur (Cenchrus echinatus), arrowleaf sida (Sida rhombifolia), Italian ryegrass (Lolium multiflorum), dayflower, VA (Virginia (VA) dayflower, Commelina virginica), field bindweed (Convolvulus arvensis), cocklebur (common cocklebur, Xanthium strumarium), morningglory (Ipomoea coccinea), nightshade (eastern black nightshade, Solanum ptycanthum), kochia (Kochia scoparia), yellow nutsedge (Cyperus esculentus), and hairy beggarticks (Bidens pilosa), were planted into a silt loam soil and treated preemergence with test chemicals formulated in a non-phytotoxic solvent mixture which included a surfactant.
(§2) At the same time, plants from these crop and weed species and also horseweed (Canada horseweed, Conyza canadensis), smartweed (ladysthumb smartweed, Polygonum persicaria), waterhemp_RES1, (ALS & Triazine resistant common waterhemp, Amaranthus rudis), and waterhemp_RES2, (ALS & HPPD resistant common waterhemp, Amaranthus rudis) were treated with postemergence applications of test chemicals formulated in the same manner. Plants ranged in height from 2 to 18 cm for postemergence treatments (1- to 4-leaf stage). Treated plants and controls were maintained in a greenhouse for 14 to 21 days, after which time all species were compared to controls and visually evaluated. Plant response ratings, summarized in Table F, are based on a scale of 0 to 100 where 0 is no effect and 100 is complete control. A dash (-) response means no test result.

pigweed, palmer = assay: Test F postemergence; format: in vivo, Amaranthus palmeri; settings: scale 0 to 100
Description: as §1, §2

field bindweed = assay: Test F postemergence; format: in vivo, Convolvulus arvensis; settings: scale 0 to 100
Description: as §1, §2

fall panicum [1] = assay: Test F postemergence; format: in vivo, Panicum dichotomiflorum; settings: scale 0 to 100
Description: as §1, §2

soybean = assay: Test F postemergence; format: in vivo, Glycine max; settings: scale 0 to 100
Description: as §1, §2

southern sandbur = assay: Test F postemergence; format: in vivo, Cenchrus echinatus; settings: scale 0 to 100
Description: as §1, §2

smartweed = assay: Test F postemergence; format: in vivo, Polygonum persicaria; settings: scale 0 to 100
Description: as §1, §2

barnyardgrass = assay: Test F postemergence; format: in vivo, Echinochloa crus-galli; settings: scale 0 to 100
Description: as §1, §2

crabgrass, Brazil = assay: Test F postemergence; format: in vivo, Digitaria horizontalis; settings: scale 0 to 100
Description: as §1, §2

[2] = system: waterhemp_RES2 (ALS & HPPD resistant common waterhemp); assay: Test F postemergence; format: in vivo, Amaranthus rudis; settings: scale 0 to 100
Description: as §1, §2

common waterhemp = assay: Test F postemergence; format: in vivo, Amaranthus rudis; settings: scale 0 to 100
Description: as §1, §2

fall panicum [3] = assay: Test F preemergence; format: in vivo, Panicum dichotomiflorum
Description: as §1, §2

[4] = Preemergence, 62 g ai/ha, scale 0 to 100
[5] = Preemergence, 125 g ai/ha, scale 0 to 100
[6] = preemergence, 16 g ai/ha, scale 0 to 100, 100 is complete control

CCCNC(=O)c1cc(CC)n(Cc2nc(C(F)(F)F)nn2C)n1 [Compound 109]
Plant response rating, Italian Ryegrass (Italian ryegrass; Postemergence, 16 g ai/ha): 0
Plant response rating, Italian Ryegrass (Italian ryegrass; Postemergence, 31 g ai/ha): 0
Plant response rating, Italian Ryegrass (Italian ryegrass; Postemergence, 125 g ai/ha): 15
Plant response rating, Italian Ryegrass (Italian ryegrass; Postemergence, 250 g ai/ha): 30
Plant response rating, Pigweed, Palmer (pigweed, palmer; Postemergence, 16 g ai/ha): 30
Plant response rating, Pigweed, Palmer (pigweed, palmer; Postemergence, 31 g ai/ha): 50
Plant response rating, Pigweed, Palmer (pigweed, palmer; Postemergence, 125 g ai/ha): 60
Plant response rating, Pigweed, Palmer (pigweed, palmer; Postemergence, 250 g ai/ha): 70
Plant response rating, Field Bindweed (field bindweed; Postemergence, 16 g ai/ha): 30
Plant response rating, Field Bindweed (field bindweed; Postemergence, 31 g ai/ha): 40
Plant response rating, Field Bindweed (field bindweed; Postemergence, 125 g ai/ha): 50
Plant response rating, Field Bindweed (field bindweed; Postemergence, 250 g ai/ha): 80
Plant response rating, Fall Panicum (fall panicum [1]; Postemergence, 16 g ai/ha): 10
Plant response rating, Fall Panicum (fall panicum [1]; Postemergence, 31 g ai/ha): 10
Plant response rating, Fall Panicum (fall panicum [1]; Postemergence, 125 g ai/ha): 20
Plant response rating, Fall Panicum (fall panicum [1]; Postemergence, 250 g ai/ha): 30
Plant response rating, Soybean (soybean; Postemergence, 16 g ai/ha): 50
Plant response rating, Soybean (soybean; Postemergence, 31 g ai/ha): 70
Plant response rating, Soybean (soybean; Postemergence, 125 g ai/ha): 95
Plant response rating, Soybean (soybean; Postemergence, 250 g ai/ha): 95
Plant response rating, Southern Sandbur (southern sandbur; Postemergence, 16 g ai/ha): 0
Plant response rating, Southern Sandbur (southern sandbur; Postemergence, 31 g ai/ha): 0
Plant response rating, Southern Sandbur (southern sandbur; Postemergence, 125 g ai/ha): 10
Plant response rating, Southern Sandbur (southern sandbur; Postemergence, 250 g ai/ha): 20
Plant response rating, Smartweed (smartweed; Postemergence, 16 g ai/ha): 20
Plant response rating, Smartweed (smartweed; Postemergence, 31 g ai/ha): 50
Plant response rating, Smartweed (smartweed; Postemergence, 125 g ai/ha): 70
Plant response rating, Smartweed (smartweed; Postemergence, 250 g ai/ha): 80
Plant response rating, Barnyardgrass (barnyardgrass; Postemergence, 16 g ai/ha): 0
Plant response rating, Barnyardgrass (barnyardgrass; Postemergence, 31 g ai/ha): 0
Plant response rating, Barnyardgrass (barnyardgrass; Postemergence, 125 g ai/ha): 30
Plant response rating, Barnyardgrass (barnyardgrass; Postemergence, 250 g ai/ha): 50
Plant response rating, Crabgrass, Brazil (crabgrass, Brazil; Postemergence, 16 g ai/ha): 10
Plant response rating, Crabgrass, Brazil (crabgrass, Brazil; Postemergence, 31 g ai/ha): 10
Plant response rating, Crabgrass, Brazil (crabgrass, Brazil; Postemergence, 125 g ai/ha): 40
Plant response rating, Crabgrass, Brazil (crabgrass, Brazil; Postemergence, 250 g ai/ha): 70
Plant response rating, Waterhemp_RES2 ([2]; Postemergence, 16 g ai/ha): 30
Plant response rating, Waterhemp_RES2 ([2]; Postemergence, 31 g ai/ha): 50
Plant response rating, Waterhemp_RES2 ([2]; Postemergence, 125 g ai/ha): 60
Plant response rating, Waterhemp_RES2 ([2]; Postemergence, 250 g ai/ha): 70
Plant response rating, Common Waterhemp (common waterhemp; Postemergence, 16 g ai/ha): 50
Plant response rating, Common Waterhemp (common waterhemp; Postemergence, 31 g ai/ha): 50
Plant response rating, Common Waterhemp (common waterhemp; Postemergence, 125 g ai/ha): 75
Plant response rating, Common Waterhemp (common waterhemp; Postemergence, 250 g ai/ha): 80

CCc1cc(-c2ccc(C(F)(F)F)cc2)nn1Cc1ccnc(C(F)(F)F)c1 [Compound 110]
Plant response rating, Italian Ryegrass (Italian ryegrass; Postemergence, 16 g ai/ha): 20
Plant response rating, Italian Ryegrass (Italian ryegrass; Postemergence, 31 g ai/ha): 20
Plant response rating, Italian Ryegrass (Italian ryegrass; Postemergence, 125 g ai/ha): 30
Plant response rating, Italian Ryegrass (Italian ryegrass; postemergence, 8 g ai/ha): 10
Plant response rating, Pigweed, Palmer (pigweed, palmer; Postemergence, 16 g ai/ha): 85
Plant response rating, Pigweed, Palmer (pigweed, palmer; Postemergence, 31 g ai/ha): 90
Plant response rating, Pigweed, Palmer (pigweed, palmer; Postemergence, 125 g ai/ha): 85
Plant response rating, Pigweed, Palmer (pigweed, palmer; postemergence, 62 g ai/ha): 50 and 85
Plant response rating, Pigweed, Palmer (pigweed, palmer; postemergence, 8 g ai/ha): 60
Plant response rating, Field Bindweed (field bindweed; Postemergence, 16 g ai/ha): 40
Plant response rating, Field Bindweed (field bindweed; Postemergence, 31 g ai/ha): 60
Plant response rating, Field Bindweed (field bindweed; Postemergence, 125 g ai/ha): 60
Plant response rating, Field Bindweed (field bindweed; postemergence, 62 g ai/ha): 40 and 50
Plant response rating, Field Bindweed (field bindweed; postemergence, 8 g ai/ha): 30
Plant response rating, Fall Panicum (fall panicum [1]; Postemergence, 16 g ai/ha): 10
Plant response rating, Fall Panicum (fall panicum [1]; Postemergence, 31 g ai/ha): 20
Plant response rating, Fall Panicum (fall panicum [1]; Postemergence, 125 g ai/ha): 30
Plant response rating, Fall Panicum (fall panicum [1]; postemergence, 62 g ai/ha): 20
Plant response rating, Fall Panicum (fall panicum [1]; postemergence, 8 g ai/ha): 10
Plant response rating, Soybean (soybean; Postemergence, 16 g ai/ha): 30
Plant response rating, Soybean (soybean; Postemergence, 31 g ai/ha): 30
Plant response rating, Soybean (soybean; Postemergence, 125 g ai/ha): 30
Plant response rating, Soybean (soybean; postemergence, 8 g ai/ha): 20
Plant response rating, Southern Sandbur (southern sandbur; Postemergence, 16 g ai/ha): 20
Plant response rating, Southern Sandbur (southern sandbur; Postemergence, 31 g ai/ha): 25
Plant response rating, Southern Sandbur (southern sandbur; Postemergence, 125 g ai/ha): 30
Plant response rating, Southern Sandbur (southern sandbur; postemergence, 8 g ai/ha): 20
Plant response rating, Smartweed (smartweed; postemergence, 62 g ai/ha): 50
Plant response rating, Barnyardgrass (barnyardgrass; Postemergence, 16 g ai/ha): 20
Plant response rating, Barnyardgrass (barnyardgrass; Postemergence, 31 g ai/ha): 20
Plant response rating, Barnyardgrass (barnyardgrass; Postemergence, 125 g ai/ha): 50
Plant response rating, Barnyardgrass (barnyardgrass; postemergence, 8 g ai/ha): 10
Plant response rating, Crabgrass, Brazil (crabgrass, Brazil; Postemergence, 16 g ai/ha): 30
Plant response rating, Crabgrass, Brazil (crabgrass, Brazil; Postemergence, 31 g ai/ha): 30
Plant response rating, Crabgrass, Brazil (crabgrass, Brazil; Postemergence, 125 g ai/ha): 50
Plant response rating, Crabgrass, Brazil (crabgrass, Brazil; postemergence, 62 g ai/ha): 30 and 40
Plant response rating, Crabgrass, Brazil (crabgrass, Brazil; postemergence, 8 g ai/ha): 20
Plant response rating, Waterhemp_RES2 ([2]; Postemergence, 16 g ai/ha): 90
Plant response rating, Waterhemp_RES2 ([2]; Postemergence, 31 g ai/ha): 98
Plant response rating, Waterhemp_RES2 ([2]; Postemergence, 125 g ai/ha): 100
Plant response rating, Waterhemp_RES2 ([2]; postemergence, 62 g ai/ha): 60 and 98
Plant response rating, Waterhemp_RES2 ([2]; postemergence, 8 g ai/ha): 85
Plant response rating, Common Waterhemp (common waterhemp; Postemergence, 16 g ai/ha): 95
Plant response rating, Common Waterhemp (common waterhemp; Postemergence, 31 g ai/ha): 100
Plant response rating, Common Waterhemp (common waterhemp; Postemergence, 125 g ai/ha): 100
Plant response rating, Common Waterhemp (common waterhemp; postemergence, 62 g ai/ha): 60 and 90
Plant response rating, Common Waterhemp (common waterhemp; postemergence, 8 g ai/ha): 90
Plant response rating, Fall Panicum (fall panicum [3]; Preemergence, 31 g ai/ha, scale 0 to 100): 75
Plant response rating, Fall Panicum (fall panicum [3]; [4]): 98
Plant response rating, Fall Panicum (fall panicum [3]; [5]): 100
Plant response rating, Fall Panicum (fall panicum [3]; preemergence, 8 g ai/ha, scale 0 to 100, 100 is complete control): 0
Plant response rating, Fall Panicum (fall panicum [3]; [6]): 5

CCCc1cc(C(=O)NC(C)C)nn1Cc1cc(C(F)(F)F)nn1C [Compound 201]
Plant response rating, Fall Panicum (fall panicum [3]; Preemergence, 16 g ai/ha, scale 0 to 100): 85
Plant response rating, Fall Panicum (fall panicum [3]; [4]): 90
Plant response rating, Fall Panicum (fall panicum [3]; [5]): 100
Plant response rating, Fall Panicum (fall panicum [3]; Preemergence, 250 g ai/ha, scale 0 to 100): 100
Plant response rating, Fall Panicum (fall panicum [3]; [6]): 0
